From ChEMBL document CHEMBL5576052, “Design, synthesis, and biological evaluation of new bis-benzylisoquinoline-based analogues as potential neuromuscular blocking agents” (Bioorg Med Chem Lett, 2024)

Columns and labels:
Type in all cases: functional
[1] = tested on: Oryctolagus cuniculus; assay: Neuromuscular blocking in rabbit model of propofol-induced anesthesia assessed as effective blocking time by measuring duration from administration to 25 percent recovery at 272.7 nmol/kg by train-of-four response method
[2] = tested on: Oryctolagus cuniculus; assay: Neuromuscular blocking in rabbit model of propofol-induced anesthesia assessed as duration of time for maximal blockade at 272.7 nmol/kg by train-of-four response method
[3] = tested on: Oryctolagus cuniculus; assay: Neuromuscular blocking in rabbit model of propofol-induced anesthesia assessed as onset time at 272.7 nmol/kg by train-of-four response method
[4] = tested on: Oryctolagus cuniculus; assay: Neuromuscular blocking in rabbit model of propofol-induced anesthesia assessed as time duration of 25 to 90 percent recovery indices at 272.7 nmol/kg by train-of-four response method
[5] = tested on: Oryctolagus cuniculus; assay: Neuromuscular blocking in rabbit model of propofol-induced anesthesia assessed as maximal blockade at 272.7 nmol/kg by train-of-four response method relative to control
[6] = tested on: Oryctolagus cuniculus; assay: Neuromuscular blocking in rabbit model of propofol-induced anesthesia assessed as time duration of 25 to 75 percent recovery indices at 272.7 nmol/kg by train-of-four response method
[7] = tested on: Oryctolagus cuniculus; assay: Neuromuscular blocking in rabbit model of propofol-induced anesthesia assessed as time duration of 25 to 75 percent recovery indices at 27.27 nmol/kg by train-of-four response method
[8] = tested on: Oryctolagus cuniculus; assay: Neuromuscular blocking in rabbit model of propofol-induced anesthesia assessed as time duration of 25 to 90 percent recovery indices at 27.27 nmol/kg by train-of-four response method
[9] = tested on: Oryctolagus cuniculus; assay: Neuromuscular blocking in rabbit model of propofol-induced anesthesia assessed as duration of time for maximal blockade at 27.27 nmol/kg by train-of-four response method
[10] = tested on: Oryctolagus cuniculus; assay: Neuromuscular blocking in rabbit model of propofol-induced anesthesia assessed as onset time at 27.27 nmol/kg by train-of-four response method
[11] = tested on: Oryctolagus cuniculus; assay: Neuromuscular blocking in rabbit model of propofol-induced anesthesia assessed as effective blocking time by measuring duration from administration to 25 percent recovery at 27.27 nmol/kg by train-of-four response method
[12] = tested on: Oryctolagus cuniculus; assay: Neuromuscular blocking in rabbit model of propofol-induced anesthesia assessed as maximal blockade at 27.27 nmol/kg by train-of-four response method relative to control

Row | SMILES | Time [1] | Time [2] | Time [3] | Time [4] | Emax at 0.2727 µmol/kg [5] | Time [6] | Time [7] | Time [8] | Time [9] | Time [10] | Time [11] | Emax at 0.02727 µmol/kg [12]
1 | CC[N+]1(CCCOC(=O)CC/C=C/CCC(=O)OCCC[N+]2(CC)CCc3cc(OC)c(OC)cc3[C@H]2Cc2cc(OC)c(OC)c(OC)c2)CCc2cc(OC)c(OC)cc2[C@H]1Cc1cc(OC)c(OC)c(OC)c1.[Cl-].[Cl-] (some centres not stated) | 14 min | 11.75 min | 0.75 min | 9.67 min | 100% | 6.42 min |  |  |  |  |  | 
2 | COc1cc2c(cc1OC)[C@@H](Cc1cc(OC)c(OC)c(OC)c1)[N+](C)(CCC(=O)OCC(C)(C)COC(=O)CC[N+]1(C)CCc3cc(OC)c(OC)cc3[C@H]1Cc1cc(OC)c(OC)c(OC)c1)CC2 (some centres not stated) |  |  |  |  | 0% |  |  |  |  |  |  | 
3 | COc1cc2c(cc1OC)[C@@H](Cc1cc(OC)c(OC)c(OC)c1)[N+](C)(CCC(=O)OCC(F)(F)COC(=O)CC[N+]1(C)CCc3cc(OC)c(OC)cc3[C@H]1Cc1cc(OC)c(OC)c(OC)c1)CC2 (some centres not stated) |  |  |  |  | 0% |  |  |  |  |  |  | 
4 | COc1cc2c(cc1OC)[C@@H](Cc1cc(OC)c(OC)c(OC)c1)[N+](C)(CCCOC(=O)CCCC(=O)OCCC[N+]1(C)CCc3cc(OC)c(OC)cc3[C@H]1Cc1cc(OC)c(OC)c(OC)c1)CC2.[Cl-].[Cl-] (some centres not stated) | 73.08 min | 66.5 min | 0.75 min | 12 min | 100% | 7.67 min | 7.75 min | 11.77 min | 8.08 min | 2.58 min | 11.67 min | 100%
5 | C=CC[N+]1(CCCOC(=O)CC/C=C/CCC(=O)OCCC[N+]2(CC=C)CCc3cc(OC)c(OC)cc3[C@H]2Cc2cc(OC)c(OC)c(OC)c2)CCc2cc(OC)c(OC)cc2[C@H]1Cc1cc(OC)c(OC)c(OC)c1 (some centres not stated) |  |  |  |  | 92% |  |  |  |  |  |  | 
6 | COc1cc2c(cc1OC)[C@@H](Cc1cc(OC)c(OC)c(OC)c1)[N+](C)(CCCOC(=O)CCCCC(=O)OCCC[N+]1(C)CCc3cc(OC)c(OC)cc3[C@H]1Cc1cc(OC)c(OC)c(OC)c1)CC2.[Cl-].[Cl-] (some centres not stated) | 38 min | 35 min | 0.63 min | 8.13 min | 100% | 6.38 min | 9.67 min | 11.67 min | 2 min | 2.75 min | 5.17 min | 100%
7 | COc1cc2c(cc1OC)[C@@H](Cc1cc(OC)c(OC)c(OC)c1)[N+](C)(CCC(=O)OCCCCCCOC(=O)CC[N+]1(C)CCc3cc(OC)c(OC)cc3[C@H]1Cc1cc(OC)c(OC)c(OC)c1)CC2.O=S(=O)([O-])c1ccccc1.O=S(=O)([O-])c1ccccc1 (some centres not stated) | 49.83 min | 44.92 min | 1 min | 12.17 min | 100% | 9.92 min |  |  |  |  |  | 
8 | COc1cc2c(cc1OC)[C@@H](Cc1cc(OC)c(OC)c(OC)c1)[N@+](CCCOC(=O)CC/C=C/CCC(=O)OCCC[N@@+]1(CC3CCC3)CCc3cc(OC)c(OC)cc3[C@H]1Cc1cc(OC)c(OC)c(OC)c1)(CC1CCC1)CC2.[Cl-].[Cl-] | 15.38 min | 8.5 min | 2 min | 15.17 min | 100% | 8.92 min |  |  |  |  |  | 
9 | COc1cc2c(cc1OC)[C@@H](Cc1cc(OC)c(OC)c(OC)c1)[N+](CCCOC(=O)CC/C=C/CCC(=O)OCCC[N+]1(CC3CC3)CCc3cc(OC)c(OC)cc3[C@H]1Cc1cc(OC)c(OC)c(OC)c1)(CC1CC1)CC2.[Cl-].[Cl-] (some centres not stated) | 5.17 min | 3.67 min | 1.25 min | 9.58 min | 100% | 6.83 min |  |  |  |  |  | 
10 | COc1cc2c(cc1OC)[C@@H](Cc1cc(OC)c(OC)c(OC)c1)[N+](C)(CCC(=O)OCC#CC#CCOC(=O)CC[N+]1(C)CCc3cc(OC)c(OC)cc3[C@H]1Cc1cc(OC)c(OC)c(OC)c1)CC2.O=S(=O)([O-])c1ccccc1.O=S(=O)([O-])c1ccccc1 (some centres not stated) | 5.83 min | 4.75 min | 1.42 min | 12 min | 100% | 6.92 min |  |  |  |  |  | 
11 | COc1cc2c(cc1OC)[C@@H](Cc1cc(OC)c(OC)c(OC)c1)[N@@+](C)(CCCOC(=O)CC/C=C/CCC(=O)OCCC[N@@+]1(C)CCc3cc(OC)c(OC)cc3[C@H]1Cc1cc(OC)c(OC)c(OC)c1)CC2 |  |  |  |  | 0% |  |  |  |  |  |  | 
12 | COc1cc2c(cc1OC)[C@@H](Cc1cc(OC)c(OC)c(OC)c1)[N+](C)(CCCOC(=O)CC(C)(C)CC(=O)OCCC[N+]1(C)CCc3cc(OC)c(OC)cc3[C@H]1Cc1cc(OC)c(OC)c(OC)c1)CC2.[Cl-].[Cl-] (some centres not stated) | 21.58 min | 18.75 min | 1.25 min | 12.58 min | 100% | 9.92 min |  |  |  |  |  | 
13 | COc1cc2c(cc1OC)[C@@H](Cc1cc(OC)c(OC)c(OC)c1)[N+](C)(CCC(=O)OCCCCOC(=O)CC[N+]1(C)CCc3cc(OC)c(OC)cc3[C@H]1Cc1cc(OC)c(OC)c(OC)c1)CC2.O=S(=O)([O-])c1ccccc1.O=S(=O)([O-])c1ccccc1 (some centres not stated) | 23.08 min | 18.58 min | 1.25 min | 13.67 min | 100% | 8.17 min |  |  |  |  |  | 
14 | CC[N@+]1(CCCOC(=O)CC/C=C/CCC(=O)OCCC[N@@+]2(CC)CCc3cc(OC)c(OC)cc3[C@H]2Cc2cc(OC)c(OC)c(OC)c2)CCc2cc(OC)c(OC)cc2[C@H]1Cc1cc(OC)c(OC)c(OC)c1.[Cl-].[Cl-] | 14.67 min | 11.58 min | 1.08 min | 15.25 min | 100% | 10.58 min |  |  |  |  |  | 
15 | COc1cc2c(cc1OC)[C@@H](Cc1cc(OC)c(OC)c(OC)c1)[N+](C)(CCCOC(=O)Cc1ccc(CC(=O)OCCC[N+]3(C)CCc4cc(OC)c(OC)cc4[C@H]3Cc3cc(OC)c(OC)c(OC)c3)cc1)CC2.[Cl-].[Cl-] (some centres not stated) | 18.08 min | 14.83 min | 0.92 min | 10.83 min | 100% | 8 min |  |  |  |  |  | 
16 | COc1cc2c(cc1OC)[C@@H](Cc1cc(OC)c(OC)c(OC)c1)[N+](C)(CCC(=O)OCCCOC(=O)CC[N+]1(C)CCc3cc(OC)c(OC)cc3[C@H]1Cc1cc(OC)c(OC)c(OC)c1)CC2.O=S(=O)([O-])c1ccccc1.O=S(=O)([O-])c1ccccc1 (some centres not stated) | 9.75 min | 7.58 min | 1.08 min | 9.83 min | 100% | 7.92 min |  |  |  |  |  | 
17 | COc1cc2c(cc1OC)[C@@H](Cc1cc(OC)c(OC)c(OC)c1)[N+](C)(CCCOC(=O)c1ccccc1-c1ccccc1C(=O)OCCC[N+]1(C)CCc3cc(OC)c(OC)cc3[C@H]1Cc1cc(OC)c(OC)c(OC)c1)CC2 (some centres not stated) |  |  |  |  | 0% |  |  |  |  |  |  | 
18 | COc1cc2c(cc1OC)[C@@H](Cc1cc(OC)c(OC)c(OC)c1)[N+](C)(CCC(=O)OCC#CCOC(=O)CC[N+]1(C)CCc3cc(OC)c(OC)cc3[C@H]1Cc1cc(OC)c(OC)c(OC)c1)CC2 (some centres not stated) |  |  |  |  | 85% |  |  |  |  |  |  | 
19 | COc1cc2c(cc1OC)[C@@H](Cc1cc(OC)c(OC)c(OC)c1)[N@+](CCCOC(=O)CC/C=C/CCC(=O)OCCC[N@@+]1(CC3CC3)CCc3cc(OC)c(OC)cc3[C@H]1Cc1cc(OC)c(OC)c(OC)c1)(CC1CC1)CC2.[Cl-].[Cl-] |  | 2.5 min | 2 min | 7.87 min | 45% | 5 min |  |  |  |  |  | 
20 | C=CC[N@+]1(CCCOC(=O)CC/C=C/CCC(=O)OCCC[N@@+]2(CC=C)CCc3cc(OC)c(OC)cc3[C@H]2Cc2cc(OC)c(OC)c(OC)c2)CCc2cc(OC)c(OC)cc2[C@H]1Cc1cc(OC)c(OC)c(OC)c1.[Cl-].[Cl-] | 6.92 min | 4.75 min | 1.42 min | 21.83 min | 100% | 13.25 min |  |  |  |  |  | 
21 | COc1cc2c(cc1OC)[C@@H](Cc1cc(OC)c(OC)c(OC)c1)[N+](C)(CCC(=O)OC/C(Br)=C(\Br)COC(=O)CC[N+]1(C)CCc3cc(OC)c(OC)cc3[C@H]1Cc1cc(OC)c(OC)c(OC)c1)CC2.O=S(=O)([O-])c1ccccc1.O=S(=O)([O-])c1ccccc1 (some centres not stated) | 9.75 min | 8.75 min | 1 min | 10.92 min | 100% | 6.83 min |  |  |  |  |  | 
